From the supplement of paper PMC11208160

Experiment: recombinant UMI read abundance after kanamycin selection (control-corrected) (log10(CPM+1)); higher = more efficient recombination; extreme values may be limits of the assay; sequences stand for … in AGTGCAGAGAAAATCGGCCAGTTTTCTCTGCCTGCAGTCCGCATGCCGTGGGACCCCTTGGGTTCTAACCTGTTGCCTAGATTTATGCAGCGGACTGCCTTTCTCCCAAAGTGATAAACCGG…AGGTTGGTTTCACT; site = the 11-nt donor
How it was run: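 Under IPTG (0.07 mM) plus kanamycin, or without selection, Escherichia coli carrying a UMI-tagged donor and donor-binding-loop pair library and a target plasmid for the IS621 bridge recombinase were plated in two replicates. Recombinant UMIs were PCR-amplified across the donor–target junction and sequenced. Counts were converted to CPM, averaged over replicates, scaled by control-derived factors and reported as log10(CPM+1).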
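Further: IS621 bridge recombinase in Escherichia coli cells against a fixed T5 target plasmid.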

| Sequence | recombinant UMI read abundance (log10) |
| --- | --- |
| CTTCAATCATGGACCGGTTTTCCCGGTAATCCGTATTTGGT (site CTTCAATCTAC) | 1.96 |
| CTTCCGACATGGACCGGTTTTCCCGGTAATCCGTATTTGAC (site CTTCCGACTGT) | 2.04 |
| CTTCCTACATGGACCGGTTTTCCCGGTAATCCGTATTTGAG (site CTACCTACTCT) | 0.0179 |
| CTTCCTACATGGACCGGTTTTCCCGGTAATCCGTATTTGAG (site CTCCCTACTCT) | 0.0168 |
| CTTCCTACATGGACCGGTTTTCCCGGTAATCCGTATTTGAG (site CTGCCTACTCT) | 0.0339 |
| CTTCCTACATGGACCGGTTTTCCCGGTAATCCGTATTTGAG (site CTTCCTACTCT) | 0.0166 |
| CTTCGAGCATGGACCGGTTTTCCCGGTAATCCGTATTTGCA (site ATTCGAGCTTG) | 0.00677 |
| CTTCGAGCATGGACCGGTTTTCCCGGTAATCCGTATTTGCA (site CTTCGAGCTTG) | 1.03 |
| CTTCGAGCATGGACCGGTTTTCCCGGTAATCCGTATTTGCA (site GTTCGAGCTTG) | 0 |
| CTTCGAGCATGGACCGGTTTTCCCGGTAATCCGTATTTGCA (site TTTCGAGCTTG) | 0 |
| CTTCTACCATGGACCGGTTTTCCCGGTAATCCGTATTTGCT (site CTACTACCTAG) | 0 |
| CTTCTACCATGGACCGGTTTTCCCGGTAATCCGTATTTGCT (site CTCCTACCTAG) | 0.00753 |
| CTTCTACCATGGACCGGTTTTCCCGGTAATCCGTATTTGCT (site CTGCTACCTAG) | 0 |
| CTTCTACCATGGACCGGTTTTCCCGGTAATCCGTATTTGCT (site CTTCTACCTAG) | 0.00449 |
| CTTCTATCATGGACCGGTTTTCCCGGTAATCCGTATTTGGT (site CTTCTATCTAC) | 1.58 |
| CTTCTCCCATGGACCGGTTTTCCCGGTAATCCGTATTTGTA (site CTTCTCACTTA) | 0.0088 |

| Sequence | recombinant UMI read abundance (log10) |
| --- | --- |
| CTTCTCCCATGGACCGGTTTTCCCGGTAATCCGTATTTGTA (site CTTCTCCCTTA) | 0.487 |
| CTTCTCCCATGGACCGGTTTTCCCGGTAATCCGTATTTGTA (site CTTCTCGCTTA) | 0.0148 |
| CTTCTCCCATGGACCGGTTTTCCCGGTAATCCGTATTTGTA (site CTTCTCTCTTA) | 0.837 |
| CTTCTCGCATGGACCGGTTTTCCCGGTAATCCGTATTTGCG (site CTTCTCGCTCG) | 0.0091 |
| CTTGCCCCATGGACCGGTTTTCCCGGTAATCCGTATTTGTA (site CTTGCCCCTTA) | 0.366 |
| CTTGCTTCATGGACCGGTTTTCCCGGTAATCCGTATTTGAT (site CTTGCTTCTAT) | 0.0131 |
| CTTGGAACATGGACCGGTTTTCCCGGTAATCCGTATTTGTT (site CATGGAACTAA) | 0.791 |
| CTTGGAACATGGACCGGTTTTCCCGGTAATCCGTATTTGTT (site CCTGGAACTAA) | 0.00748 |
| CTTGGAACATGGACCGGTTTTCCCGGTAATCCGTATTTGTT (site CGTGGAACTAA) | 0.00508 |
| CTTGGAACATGGACCGGTTTTCCCGGTAATCCGTATTTGTT (site CTTGGAACTAA) | 1.36 |
| CTTGTAACATGGACCGGTTTTCCCGGTAATCCGTATTTGCA (site CTTGTAACTTG) | 0.147 |
| CTTGTATCATGGACCGGTTTTCCCGGTAATCCGTATTTGAC (site CTAGTATCTGT) | 0 |
| CTTGTATCATGGACCGGTTTTCCCGGTAATCCGTATTTGAC (site CTCGTATCTGT) | 0 |
| CTTGTATCATGGACCGGTTTTCCCGGTAATCCGTATTTGAC (site CTGGTATCTGT) | 0 |
| CTTGTATCATGGACCGGTTTTCCCGGTAATCCGTATTTGAC (site CTTGTATCTGT) | 0 |
| CTTGTATCATGGACCGGTTTTCCCGGTAATCCGTATTTGGC (site CTAGTATCTGT) | 0.315 |
